Patent US20220389500A1, “PURIFYING AND POLYMERIZING 3'-BLOCKED NUCLEOTIDES” (ILLUMINA, INC., priority 2021, published 2022)

Tests used:
[1] = Observation of precipitate and color change of dye-coupled nucleotide solutions with polishing polymerase, template, magnesium ions and buffer; assay type: physicochemical; conditions: HPBCD added to dye-coupled nucleotides, magnesium ions (magnesium acetate) and buffer
Excerpt: A precipitate was formed and a color change of solution was observed when nucleotides (3′-blocked and 3′-OH), which were coupled to different fluorescent dyes, were mixed with polishing polymerase, a template, magnesium ions (from magnesium acetate), and a buffer. The change in color was interpreted as the solution having a reduced concentration of fluorescent dyes, and the precipitate was interpreted as being an aggregation of the nucleotides coupled to the fluorescent dyes. […] From this it was inferred that modified α-cyclodextrins (such as (2-hydroxypropyl)-α-cyclodextrin), other modified β-cyclodextrins (such as […], HEBCD), or modified γ-cyclodextrins (such as (2-hydroxypropyl)-γ-cyclodextrin) may promote solubility of the nucleotides and/or of the fluorescent dyes. A series of solutions were prepared in which the concentration of magnesium ions was varied between 0 and 6.3 mM, the concentration of HPBCD was varied between 0% and 10% (w/v), and the concentration of nucleotides including fluorescent dyes was varied between 0.5 and 1.5 mM. […] The plots described below with reference to FIGS. 12-15 were obtained by using the measured normalized intensities, together with the corresponding concentrations of different solution components, in a model that interpolated the behavior of the solution system for additional concentrations. […]

[2] = Concentrations of byproducts diphosphate and tetraphosphate in nucleotide solutions vs HPBCD, magnesium ions and nucleotides (FIG. 15); assay type: physicochemical; conditions: solutions with buffer, polymerase and oligonucleotide template
Excerpt: A precipitate was formed and a color change of solution was observed when nucleotides (3′-blocked and 3′-OH), which were coupled to different fluorescent dyes, were mixed with polishing polymerase, a template, magnesium ions (from magnesium acetate), and a buffer. The change in color was interpreted as the solution having a reduced concentration of fluorescent dyes, and the precipitate was interpreted as being an aggregation of the nucleotides coupled to the fluorescent dyes. […] The plots described below with reference to FIGS. 12-15 were obtained by using the measured normalized intensities, together with the corresponding concentrations of different solution components, in a model that interpolated the behavior of the solution system for additional concentrations. […]
FIG. 15 includes plots of the concentrations of different byproducts as a function of concentrations of the modified β-cyclodextrin HPBCD, of magnesium ions, and of the fluorescently labeled nucleotides FFA-1, FFA-3, and FFC-1. More specifically, the respective concentrations of diphosphate and tetraphosphate in the solutions were measured and used in the above-noted models. […]

CC(O)COC[C@H]1O[C@@H]2O[C@H]3[C@H](O)[C@@H](O)[C@@H](O[C@H]4[C@H](O)[C@@H](O)[C@@H](O[C@H]5[C@H](O)[C@@H](O)[C@@H](O[C@H]6[C@H](O)[C@@H](O)[C@@H](O[C@H]7[C@H](O)[C@@H](O)[C@@H](O[C@H]8[C@H](O)[C@@H](O)[C@@H](O[C@H]1[C@H](O)[C@H]2O)O[C@@H]8COCC(C)O)O[C@@H]7COCC(C)O)O[C@@H]6COCC(C)O)O[C@@H]5COCC(C)O)O[C@@H]4COCC(C)O)O[C@@H]3COCC(C)O (stereo partly drawn) [HPBCD, (2-hydroxypropyl)-β-cyclodextrin]
precipitate formation and color change of solution [1]: did not form a precipitate or change color
effect on formation of byproducts (diphosphate, tetraphosphate) [2]: suppressed the formation of different byproducts
